Measured values reported in patent US20060069132A1, “Azolecarboxamide herbicides” (priority 2004, published 2006).
Like-named read-outs stand apart in the source and are kept apart here.

What was measured:
blackgrass = assay: Test B postemergence herbicide test; format: in vivo, Alopecurus myosuroides; settings: scale 0 (no effect) to 100 (complete control); for Blackgrass plant response rating: postemergence, visual rating
Procedure, shortened: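 After treating 2-leaf paddy plants or 2–18 cm postemergence plants (1 to 4 leaves) with formulated chemical, researchers kept them in a greenhouse for 13–15 days. Effects were judged visually versus controls: 0 indicates none, 100 total control.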

corn = assay: Test B pre-/postemergence herbicide test; format: in vivo, Zea mays; settings: for Corn plant response rating: postemergence
Procedure, shortened: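 Plants compared with untreated controls 13–15 days post-treatment and given a visual 0–100 injury score. Applications: preemergence to seeds; postemergence at 1- to 4-leaf (2–18 cm); paddy species flooded, 2-leaf stage. Vehicle non-phytotoxic, surfactant included.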

soybean = assay: Test C pre-/postemergence herbicide test; format: in vivo, Glycine max
Procedure, shortened: (§1)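 Greenhouse-grown plants were evaluated visually 12 to 14 days after treatment, with 100 meaning complete control and 0 no effect. Application was preemergence, or postemergence at 2 to 18 cm.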

ducksalad = assay: Test C flooded paddy test; format: in vivo, Heteranthera limosa
common ragweed = assay: Test C pre-/postemergence herbicide test; format: in vivo, Ambrosia elatior; design: key to Plant response rating, Ragweed: 0 = no effect, 100 = complete control
Procedure, shortened: as §1

woolly cupgrass = assay: Test C pre-/postemergence herbicide test; format: in vivo, Eriochloa villosa
Procedure, shortened: as §1

redroot pigweed = assay: Test A pre-/postemergence herbicide test; format: in vivo, Amaranthus retroflexus; settings: for pest or weed control at 500 g/ha / pest or weed control at 2000 g/ha: Amaranthus retroflexus, 240 h
Procedure, shortened: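 Plants are held in greenhouse about ten days after treatment, then compared with untreated controls and scored 0 (no effect) to 100 (complete control). Preemergence dosing is a directed soil spray on sown sandy loam; postemergence dosing is spray to runoff at 2–10 cm height.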

rice = assay: Test C flooded paddy test; format: in vivo, Oryza sativa
Procedure, shortened: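 Postemergence sprays applied to plants 2 to 18 cm tall (1- to 4-leaf stage); paddy species grown to 2-leaf stage under flooding. After 12 to 14 days in greenhouse, visual rating versus untreated controls on 0–100 scale (0 no effect, 100 complete control).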

[1] = Preemergence, 500 g ai/ha, scale 0 to 100, 0 no effect, 100 complete control
[2] = 62 g ai/ha, preemergence, scale 0 to 100
[3] = 250 g ai/ha, scale 0-100, preemergence
[4] = 500 g ai/ha, scale 0 to 100 (0 no effect, 100 complete control), visual, 12 to 14 days, preemergence
[5] = 62 g ai/ha, scale 0 to 100 (0 no effect, 100 complete control)
[6] = 125 g ai/ha, scale 0 to 100 (0 no effect, 100 complete control)
[7] = 250 g ai/ha, scale of 0 to 100, 0 is no effect, 100 is complete control
[8] = 500 g ai/ha, visual rating after 12 to 14 days, scale 0 to 100 (0 no effect, 100 complete control)

Structure (SMILES): CCn1nc(C(C)(C)C)cc1C(=O)Nc1cc(C(=O)N(C)C)ccc1F [Compound 6, N-[5-[(dimethylamino)carbonyl]-2-fluorophenyl]-3-(1,1-dimethylethyl)-1-ethyl-1H-pyrazole-5-carboxamide]
- pest or weed control at 125 g/ha (blackgrass; Alopecurus myosuroides, post-emergence, 336 h, Postemergence, 125 g ai/ha, read-out: Blackgrass plant response rating): 20%
- Plant response rating, Blackgrass (blackgrass; Postemergence, 500 g ai/ha, visual rating after 13 to 15 days): 90
- plant injury at 125 g/ha (corn; Zea mays, post-emergence, Postemergence, 125 g ai/ha, scale 0 (no effect) to 100 (complete control), read-out: Corn plant response rating): 0%
- Corn plant response rating (crop injury, 0 = no effect, 100 = complete kill) at 500 g/ha (corn; Zea mays, post-emergence, Postemergence, 500 g ai/ha, visual rating after 13 to 15 days, scale 0 (no effect) to 100 (complete control)): 60%
- plant injury at 500 g/ha (corn; Zea mays, pre-emergence, Preemergence, 500 g ai/ha, scale 0 to 100, read-out: Corn plant response rating): 90%
- Plant response rating (0 = no effect, 100 = complete control), Soybean (soybean; 62 g ai/ha, preemergence): 70
- plant injury at 250 g/ha (soybean; Glycine max, pre-emergence, 250 g ai/ha, scale 0 to 100 (0 no effect, 100 complete control), visual, 12 to 14 days, read-out: Plant response rating, Soybean): 100%
- Soybean plant response rating (soybean; [1]): 100
- pest or weed control at 62 g/ha (ducksalad; Heteranthera limosa, 62 g ai/ha, scale 0 to 100 (0 no effect, 100 complete control), read-out: Ducksalad plant response rating): 80%
- pest or weed control at 125 g/ha (ducksalad; Heteranthera limosa, 125 g ai/ha, scale of 0 to 100, 0 is no effect, 100 is complete control, read-out: Ducksalad plant response rating): 90%
- pest or weed control at 250 g/ha (ducksalad; Heteranthera limosa, 250 g ai/ha, visual rating after 12 to 14 days, scale 0 to 100 (0 no effect, 100 complete control), read-out: Plant response rating, Ducksalad): 90%
- pest or weed control at 500 g/ha (ducksalad; Heteranthera limosa, 500 g ai/ha, visual rating after 12 to 14 days, scale 0 to 100 (0 no effect, 100 complete control), read-out: Plant response rating, Ducksalad): 100%
- Plant response rating (0 = no effect, 100 = complete control), Ragweed (common ragweed; 62 g ai/ha, preemergence): 100
- pest or weed control at 250 g/ha (common ragweed; Ambrosia artemisiifolia, pre-emergence, 250 g ai/ha, scale 0 to 100 (0 no effect, 100 complete control), visual, 12 to 14 days, read-out: Plant response rating, Ragweed): 100%
- Ragweed plant response rating (common ragweed; [1]): 100
- Plant response rating (0 = no effect, 100 = complete control), Cupgrass, Woolly (woolly cupgrass; 62 g ai/ha, preemergence): 50
- pest or weed control at 125 g/ha (woolly cupgrass; Eriochloa villosa, pre-emergence, 312 h, 125 g ai/ha, scale 0-100, read-out: Plant response rating, Cupgrass, Woolly): 55%
- pest or weed control at 250 g/ha (woolly cupgrass; Eriochloa villosa, pre-emergence, 312 h, 250 g ai/ha, scale 0 to 100 (0 no effect, 100 complete control), visual, 12 to 14 days, read-out: Plant response rating, Cupgrass, Woolly): 75%
- Cupgrass, Woolly plant response rating (woolly cupgrass; [1]): 75
- pest or weed control at 500 g/ha (redroot pigweed; post-emergence, Postemergence, 500 g ai/ha, 0 to 100 scale, 0 no effect, 100 complete control, read-out: Plant response rating, Pigweed): 100%
- pest or weed control at 2000 g/ha (redroot pigweed; post-emergence, Postemergence, 2000 g ai/ha, 0 to 100 scale, 0 no effect, 100 complete control, read-out: Plant response rating, Pigweed): 100%
- pest or weed control at 500 g/ha (redroot pigweed; pre-emergence, Preemergence, 500 g ai/ha, visual rating, 0 to 100 scale (0 no effect, 100 complete control), read-out: Pigweed plant response rating): 100%
- pest or weed control at 2000 g/ha (redroot pigweed; pre-emergence, Preemergence, 2000 g ai/ha, 0 to 100 scale, 0 no effect, 100 complete control, read-out: Pigweed plant response rating): 100%
- plant injury at 62 g/ha (rice; Oryza sativa, 62 g ai/ha, scale 0 to 100 (0 no effect, 100 complete control), read-out: Rice plant response rating): 40%
- plant injury at 125 g/ha (rice; Oryza sativa, 125 g ai/ha, scale of 0 to 100, 0 is no effect, 100 is complete control, read-out: Rice plant response rating): 80%
- plant injury at 250 g/ha (rice; Oryza sativa, 250 g ai/ha, visual rating after 12 to 14 days, scale 0 to 100 (0 no effect, 100 complete control), read-out: Plant response rating, Rice): 80%
- plant injury at 500 g/ha (rice; Oryza sativa, 500 g ai/ha, visual rating after 12 to 14 days, scale 0 to 100 (0 no effect, 100 complete control), read-out: Plant response rating, Rice): 90%

Structure (SMILES): CCc1nc(C(C)(C)C)sc1C(=O)Nc1cccc(C(=O)NCC2CC2)n1 [Compound 215]
- Blackgrass plant response rating (blackgrass; 125 g ai/ha): 0
- Blackgrass plant response rating (blackgrass; 500 g ai/ha): 0
- Corn plant response rating (0 to 100 scale) (corn; 125 g ai/ha, 0 = no effect, 100 = complete control, preemergence): 0
- Plant response rating, Corn (corn; 500 g ai/ha, visual rating, 0 = no effect, 100 = complete control, preemergence): 0
- Corn plant response rating (corn; 125 g ai/ha, visual rating, scale 0 (no effect) to 100 (complete control)): 0
- Corn plant response rating (corn; 500 g ai/ha, visual rating, scale 0 (no effect) to 100 (complete control)): 10
- Plant response rating, Soybean (soybean; [2]): 0
- Plant response rating, Soybean (soybean; [3]): 0
- Plant response rating, Soybean (soybean; [4]): 0
- Ducksalad plant response rating (ducksalad; [5]): 40
- Ducksalad plant response rating (ducksalad; [6]): 40
- Ducksalad plant response rating (ducksalad; [7]): 60
- Plant response rating, Ducksalad (ducksalad; [8]): 80
- Plant response rating, Ragweed (common ragweed; [2]): 0
- Plant response rating, Ragweed (common ragweed; [3]): 100
- Plant response rating, Ragweed (common ragweed; [4]): 100
- Plant response rating, Cupgrass, Woolly (woolly cupgrass; [2]): 0
- Plant response rating, Cupgrass, Woolly (woolly cupgrass; 125 g ai/ha, scale 0 (no effect) to 100 (complete control), visual, 12 to 14 days, preemergence): 10
- Plant response rating, Cupgrass, Woolly (woolly cupgrass; [3]): 40
- Plant response rating, Cupgrass, Woolly (woolly cupgrass; [4]): 50
- Pigweed plant response rating (redroot pigweed; Postemergence, 500 g ai/ha, 0 to 100 scale, 0 no effect, 100 complete control): 70
- Plant response rating, Pigweed (redroot pigweed; Postemergence, 2000 g ai/ha, 0 to 100 scale, 0 no effect, 100 complete control): 80
- Pigweed plant response rating (redroot pigweed; Preemergence, 2000 g ai/ha, visual rating, 0 to 100 scale (0 no effect, 100 complete control)): 85
- Pigweed plant response rating (redroot pigweed; preemergence, 500 g ai/ha, visual injury, 0 to 100 scale (0 no effect, 100 complete control)): 30
- Rice plant response rating (rice; [5]): 0
- Rice plant response rating (rice; [6]): 0
- Rice plant response rating (rice; [7]): 0
- Plant response rating, Rice (rice; [8]): 20
